Entries after “also recorded” stand apart in the source; their conditions may differ. Like-named read-outs stand apart in the source and are kept apart here.
Experiments:
[1] = test system: sea urchin egg homogenates; test: Ca2+ release assay in sea urchin egg homogenates; format: biochemical, Strongylocentrotus purpuratus; details: for EC50: S. purpuratus egg homogenates, read-out: half-maximal concentration for Ca2+ release (EC50)
Protocol: The dilutions and all experiments were conducted at 17° C. Free Ca^2+ concentrations were measured by monitoring the fluorescence (490 nm excitation, 535 nm emission) of the indicator using a Perkin Elmer Model 650 spectrofluometer. […] For some experiments a BMG FluoStar 96 well fluorescence plate reader was used. In this case, samples to be tested were added to wells of a 96 well plate in 1.5 μl aliquots. Calcium release was initiated by adding 150 μl of homogenate to each well with a multichannel pipette. Six to eight wells were measured simultaneously. Samples to be tested were diluted in IM buffer containing 10 μM EGTA.

[2] = Stability to heat (boiling water bath), read out by Ca2+ release
Excerpt: Aliquots were then cooled on ice and the ability of the sample to release Ca^2+ determined. Data is average±sd for a representative experiment performed in triplicate.

CB MNC [3] = test: Fluorimetric determination of [Ca2+]i in CB MNC (FURA 2); format: cell-based, human
Protocol: Measurements were performed at room temperature in a 2 ml-cuvette under continuous stirring. […] Chem., 273, 8017-8024. The frequency of recording was 1 point/s. All measurements were performed in Ca^2+-free external solutions.

CD38 [4] = details: 1 μg/ml CD38 at 37° C.
[5] = test system: cord blood (CB) mononuclear cells (MNC)
Protocol: (§2) After liquid culture, an appropriate number of MNC or CD34^+-enriched cells was plated in methylcellulose medium supplemented with a mixture of hemopoietic growth factors (Methocult; Stem Cell Technologies, Vancouver, BC, Canada). After 14 days of incubation in a humidified, 5% CO2 atmosphere at 37° C., colonies were scored using an inverted microscope, applying standard criteria for their identification.

CD38 [6] = test: Stability to hydrolysis by CD38, read out by Ca2+ release
Live L. pictus eggs = test: Microinjection into live sea urchin eggs (Ca2+ mobilization, cortical reaction)
Excerpt: Live L. pictus eggs were preloaded with the calcium indicator, fluo 3, by microinjection.

[7] = general statement, not tested here; cited from earlier work
L. pictus = details: cited from earlier work
[8] = test system: cord blood (CB) mononuclear cells (MNC); test: Colony size (cells per colony) from CB MNC; format: cell-based, human; details: 100 μM, 24 hours priming
Protocol: as §2

[9] = test system: bone marrow (BM)-derived clonogenic progenitors; test: CFC output of bone marrow-derived clonogenic progenitors; format: cell-based, human; details: 100 μM, 24 hours, n=3
Excerpt: (§1) Normal bone marrow (BM) cells were obtained from donors providing marrow for allogeneic transplantation. Leukapheresis samples were obtained from normal donors providing peripheral blood (PB) progenitor cells for allogeneic transplant after a short course of granulocyte colony-stimulating factor. All donors gave informed consent. Mononuclear cells (MNC) from CB, BM and PB were separated by density gradient centrifugation on Ficoll-Hypaque (Sigma). After separation, cells were washed twice in Iscove's Modified Dulbecco's Medium (IMDM) containing 5% fetal calf serum (FCS) and resuspended in IMDM containing 10% FCS, penicillin 100 U/ml, streptomycin 100 μg/ml and glutamine 2 mM (complete medium).

[10] = test system: peripheral blood (PB)-derived clonogenic progenitors; test: CFC output of peripheral blood-derived clonogenic progenitors; format: cell-based, human; details: 100 μM, 24 hours, n=2
Excerpt: as §1

CD34+-enriched MNC = test: CFC growth from CD34+-enriched fractions; format: cell-based, human; details: 100 μM, 24 hours, n=6
Protocol: Immunoaffinity purification of CD34^+ cells was used to enrich MNC in colony forming cells (CFC) and early progenitors (Krause, D. […] CD34^+ cell enrichment was performed by positive selection using the miniMACS immunomagnetic separation system (Miltenyi Biotec GmBH, Germany). Briefly, PB- or CB-derived MNC were suspended in phosphate-buffered saline (PBS) containing 0.5% bovine serum albumin and 5 mM EDTA and CD34^+ cells were separated using anti-CD34 antibody (clone: QBEND/10; isotype: mouse IgG1) and colloidal superparamagnetic beads. After labeling, the cell suspension was passed through a column held within a magnetic field causing CD34^+ cells to be retained in the column. Purified CD34^+ cells were then collected following removal of the column from the magnet and washing with buffer.

CB MNC [11] = test: Cytosine arabinoside-susceptibility of CB MNC CFC; format: cell-based, human
Excerpt: Thereafter, cells were washed, counted and plated in semisolid medium for assay of CFC at a concentration of 10^4 MNC/plate.

[12] = test system: specific microsomal binding site for cADPR; details: cited from earlier work
[13] = 100 nM in pipette, about 0.7 nM in the egg
[14] = 1 μM in pipette, about 10 nM in the egg
[15] = 10 μM in pipette, ~130 nM in the egg

For `N=c1c2ncn3c2ccn1C1OC(COP(=O)(O)OP(=O)(O)OCC2OC3C(O)C2O)C(O)C1O` (stereo not shown) [3-deaza-cADPR, cyclic 3-deaza-adenosine diphosphoribose], which “lag before Ca2+ release at low concentrations” value [1] is on record?
The value was “an appreciable lag is seen”.

And the “desensitization of homogenate to subsequent challenge by the other agonist” value ([1]; 1 μM cADPR, 500 nM 3-deaza-cADPR)?
Its value is “renders the system unresponsive”.

And the EC50 [1]?
The EC50 was 1 ± 0.4 nM.

And the “final concentration able/needed to elicit Ca2+ release” value ([1]; control traces, FIG. 3)?
The value was 0.3 nM.

What about the “resistance to heat hydrolysis” value [2] of the same molecule?
Its value is “resistant”.

And the “fraction inactivated upon boiling” value ([2]; boiling for up to two hours, 350 nM)?
Its value is “about 15%”.

And the “[Ca2+]i after 24 hours” value (CB MNC [3]; 10 nM 3-deaza-cADPR, n=7, basal 20.3±1.8)?
The value was 96.4 ± 5.0 nM.

What about the “calcium response of intact cells over 30 min” value (CB MNC [3]; 100 μM cADPR or 10 nM 3-deaza-cADPR, zero-calcium external solution) of the same molecule?
Its value is “same rate and extent”.

What about the “calcium levels following removal of the nucleotide” value (CB MNC [3]; at least 48 hours after removal) of the same molecule?
Its value is “remained unchanged”.

What about the “[Ca2+]i(t=0), fitted parameter” value (CB MNC [3]; single exponential fit, 10 nM) of the same molecule?
Its value is 21.1 ± 0.6 nM.

What about the “Δmax[Ca2+]i, fitted maximal calcium change” value (CB MNC [3]; single exponential fit, 10 nM) of the same molecule?
The value was 74.0 ± 0.7 nM.

What about the “τ, time constant of [Ca2+]i increase” value (CB MNC [3]; single exponential fit, 10 nM) of the same molecule?
Its value is 6.5 h.

What about the “hydrolysis by CD38” value (CD38 [4]) of the same molecule?
Its value is “did not hydrolyze”.

What about the “median CFC output” value ([5]; 1 nM, n=5, control 1,150) of the same molecule?
The value was 2,050 CFC/ml.

And the “median CFC output” value ([5]; 1 μM, n=5, control 1,150)?
Its value is 2,200 CFC/ml.

What about the “CFC output compared to untreated cells” value ([5]; 1, 10, 100 and 1,000 nM, each concentration) of the same molecule?
Its value is “significant increase”.

And the “effect of 1 nM as share of the effect induced by 1 μM” value ([5]; CFC output)?
The value was 95%.

And the “resistance to enzymatic hydrolysis” value (CD38 [6])?
Its value is “resistant”.

What about the “Ca2+ transient” value (Live L. pictus eggs; [13]) of the same molecule?
Its value is “small”.

And the “injected eggs with partial cortical reaction” value (Live L. pictus eggs; [13])?
Its value is 1 out of 6.

What about the “full cortical reactions out of the 7 eggs injected” value (Live L. pictus eggs; [14]) of the same molecule?
Its value is 4.

What about the “partial cortical reaction out of the 7 eggs injected” value (Live L. pictus eggs; [14]) of the same molecule?
The value was 1.

And the “Ca2+ transient” value (Live L. pictus eggs; [15])?
The value was “large”.

What about the “eggs with full cortical reaction” value (Live L. pictus eggs; [15]) of the same molecule?
Its value is 5 out of 5.

With `N=c1c2ccn3c2ncn1C1OC(COP(=O)(O)OP(=O)(O)OCC2OC3C(O)C2O)C(O)C1O` (stereo not shown) [7-deaza-cADPR] as the molecule, how does the agonist character [1] read?
The agonist character was “partial agonist”.

And the EC50 [1]?
Its EC50 is roughly 25 nM.

And the “Ca2+ release relative to that induced by cADPR or 3-deaza-cADPR” value ([1]; maximal response, FIG. 4)?
The value was “about 70%”.

What about the “resistance of the N1-glycosidic linkage to hydrolysis” value [7] of the same molecule?
Its value is “resistant to hydrolysis”.

And the “relative potency of cADPR and 7-deaza-cADPR” value (L. pictus)?
Its value is “cADPR is more potent than 7-deaza-cADPR”.

With `N=c1c2nc(N)n3c2ncn1[C@@H]1O[C@H](COP(=O)(O)OP(=O)(O)OC[C@H]2O[C@@H]3[C@H](O)[C@@H]2O)[C@@H](O)[C@H]1O` [8-NH2-cADPR] as the molecule, how does the “effect on 3-deaza-cADPR-induced Ca2+ release” value ([1]; 2.7 nM 3-deaza-cADPR, 60 and 300 nM 8-amino-cADPR) read?
Its value is “blocks; also recorded: can also inhibit”.

And the “amount of Ca2+ releasable by calcium ionophore A23187 vs untreated” value (CB MNC [3]; 10 μM, 24 hours)?
Its value is “consistent increase”.

What about the “basal [Ca2+]i after incubation” value (CB MNC [3]; 10 μM, 24 hours, n=3, from 20±2) of the same molecule?
The value was 14 ± 1 nM.

And the “effect on calcium increase induced by cADPR” value (CB MNC [3]; 100 μM, 2 hours pre-incubation)?
The value was “completely inhibited”.

And the “[Ca2+]i following exposure to cADPR” value (CB MNC [3]; 2 hours pre-incubation with 100 μM 8-NH2-cADPR, then 100 μM cADPR for 4 hours, n=2)?
Its value is 20 nM.

And the “mean CFC output” value ([5]; 10 μM 8-NH2-cADPR plus 10-fold excess cADPR (100 μM), 24 hours, control 2,800)?
The value was 1,200 CFC/ml.

What about the “mean CFC output” value ([5]; 10 μM 8-NH2-cADPR plus 100-fold excess cADPR (1 mM), 24 hours, control 2,600) of the same molecule?
Its value is 2,500 CFC/ml.

What about the “effect on colony growth” value ([5]; 10 μM, 24 hours pre-treatment) of the same molecule?
Its value is “completely inhibited colony growth”.

What about the “median CFC output” value ([5]; 10 μM, 24 hours, n=3, untreated 3,400) of the same molecule?
The value was “zero”.

And the “colony growth after further 24 hours with cADPR (100 μM)” value ([5]; after 10 μM 8-NH2-cADPR pre-treatment)?
Its value is “did not restore colony growth”.

With `Nc1ncnc2c1ncn2[C@@H]1O[C@H](COP(=O)(O)OP(=O)(O)OC[C@H]2OC(O)[C@H](O)[C@@H]2O)[C@@H](O)[C@H]1O` (stereo partly shown) [ADPR, ADP-ribose] as the molecule, how does the “Median number of cells per colony” value [8] read?
Its value is 11,560.

What about the “Range of number of cells per colony” value [8] of the same molecule?
Its value is 6,200-19,000.

And the “median CFC output, BM-derived” value [9]?
The value was 1,500 CFC/ml.

And the “median CFC output, PB-derived” value [10]?
Its value is 1,460 CFC/ml.

What about the “median CFC growth from CD34+-enriched fractions” value (CD34+-enriched MNC) of the same molecule?
Its value is 18,000 CFC/10^6 MNC.

What about the “range of CFC growth from CD34+-enriched fractions” value (CD34+-enriched MNC) of the same molecule?
Its value is 360-70,000 CFC/10^6 MNC.

What about the “Median CFC number per ml” value ([5]; 100 μM, 24 hours, CB MNC) of the same molecule?
The value was 2,141 CFC/ml.

And the “Range of CFC number per ml” value ([5]; 100 μM, 24 hours, CB MNC)?
The value was 600-13,120 CFC/ml.

And the “effect on CFC growth compared to untreated cells” value ([5]; any of the concentrations tested (1-1,000 μM))?
The value was “No effect”.

Which “effect on the growth-stimulating effect of cADPR” value (CB MNC [11]; 1 μM c-ARA, 24 hours) does the source give for `Nc1ccn([C@@H]2O[C@H](CO)[C@@H](O)[C@@H]2O)c(=O)n1` [c-ARA, Cytosine arabinoside] here?
The value was “complete inhibition”.

What about the “effect on increased replating efficiency produced by cADPR priming” value (CB MNC [11]; 1 μM c-ARA, 24 hours pretreatment) of the same molecule?
The value was “did not affect”.

And the median colony number (CB MNC [11]; c-ARA pretreated (1 μM, 24 hours), incubated without cADPR, n=8)?
Its median colony number is 21 per 10^4 plated MNC.

For inositol trisphosphate, which “competition for the cADPR binding site relative to cADPR” value [12] is on record?
The value was “at least a thousand times less effectively than cADPR”.

From patent publication US6593307B1, “Cyclic-ADP-ribose analogs” (Regents of the University of Minnesota, priority 1999, dated 2003)
